{"source": "patent US20130158075A1", "about": "“HETEROCYCLIC COMPOUNDS AS DGAT1 INHIBITORS” (PIRAMAL ENTERPRISES LIMITED, priority 2010, published 2013)"}
{"biological_target": "T1, hDGAT1 (Homo sapiens, UniProt O75907)", "T1 construct": "made in house; host or cells: Sf9 insect cells (baculovirus); microsomal fraction", "T1 sequence (O75907 1-488)": "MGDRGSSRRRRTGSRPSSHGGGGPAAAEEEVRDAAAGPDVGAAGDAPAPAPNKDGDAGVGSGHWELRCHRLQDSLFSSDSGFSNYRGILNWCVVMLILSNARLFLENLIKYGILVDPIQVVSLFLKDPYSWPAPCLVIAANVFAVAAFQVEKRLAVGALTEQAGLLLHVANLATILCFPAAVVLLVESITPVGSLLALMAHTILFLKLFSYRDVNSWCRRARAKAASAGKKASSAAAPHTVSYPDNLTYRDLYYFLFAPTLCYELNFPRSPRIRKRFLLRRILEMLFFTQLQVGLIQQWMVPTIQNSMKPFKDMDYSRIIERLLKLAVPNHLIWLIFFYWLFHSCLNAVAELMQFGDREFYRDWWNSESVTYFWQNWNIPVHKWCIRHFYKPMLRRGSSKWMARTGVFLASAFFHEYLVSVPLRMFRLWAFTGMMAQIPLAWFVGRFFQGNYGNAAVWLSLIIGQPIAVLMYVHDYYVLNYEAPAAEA", "experiment": "In-vitro DGAT1 assay with hDGAT1 microsomes from Sf9 cells (14C oleoyl CoA, scintillation counting)", "assay_type": "biochemical", "conditions": "at 1 μM", "procedure,_shortened": "(§1)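 Microsomes from Sf9 cells infected with hDGAT1 baculovirus (MOI 5, harvested ~66-72 h) were incubated with [14C]oleoyl-CoA and 1,2-dioleoyl-sn-glycerol at 37 °C for 10 min, in duplicate. After alkaline ethanol stop, triglycerides were heptane-extracted and counted by liquid scintillation; percent inhibition was plotted against compound concentration (nM).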"}
{"smiles": "O=C(Nc1ccc(-c2noc([C@H]3CC[C@H](C(=O)O)CC3)n2)cc1)Nc1ccccc1Cl", "note": "[Example 219, (1r,4r)-4-(3-(4-(3-(2-Chlorophenyl)ureido)phenyl)-1,2,4-oxadiazol-5-yl)cyclo hexanecarboxylic acid]", "Percentage inhibition of hDGAT1": "+ (20-50% Inhibition)"}
{"smiles": "O=C(Nc1ccc(-c2noc([C@H]3CC[C@H](C(=O)O)CC3)n2)cc1)Nc1ccc(F)cc1F", "note": "[Example 221, (1r,4r)-4-(3-(4-(3-(2,4-Difluorophenyl)ureido)phenyl)-1,2,4-oxadiazol-5-yl)cyclohexanecarboxylic acid]", "Percentage inhibition of hDGAT1": "+ (20-50% Inhibition)"}
{"smiles": "Cc1ccc(NC(=O)Nc2ccc(-c3noc([C@H]4CC[C@H](C(=O)O)CC4)n3)cc2)cc1", "note": "[Example 223, (1r,4r)-4-(3-(4-(3-p-Tolylureido)Phenyl)-1,2,4-oxadiazol-5-yl)cyclohexane carboxylic acid]", "Percentage inhibition of hDGAT1": "+ (20-50% Inhibition)"}
{"smiles": "O=C(Nc1ccc(-c2noc([C@H]3CC[C@H](C(=O)O)CC3)n2)cc1)Nc1cccc(Cl)c1", "note": "[Example 225, (1r,4r)-4-(3-(4-(3-(3-Chlorophenyl)ureido)phenyl)-1,2,4-oxadiazol-5-yl)cyclo hexanecarboxylic acid]", "Percentage inhibition of hDGAT1": "++ (>50 % Inhibition)"}
{"smiles": "O=C(Nc1ccc(-c2noc([C@H]3CC[C@H](C(=O)O)CC3)n2)cc1)Nc1ccc(Cl)cc1Oc1ccccc1", "note": "[Example 227, (1r,4r)-4-(3-(4-(3-(4-Chloro-2-phenoxyphenyl)ureido)phenyl)-1,2,4-oxadiazol-5-yl)cyclohexanecarboxylic acid]", "Percentage inhibition of hDGAT1": "++ (>50 % Inhibition)"}
{"smiles": "CC(C)(C)c1ccc(C(=O)Nc2ccc(-c3noc([C@H]4CC[C@H](C(=O)O)CC4)n3)cc2)cc1", "note": "[Example 229, (1r,4r)-4-(3-(4-(4-tert-Butylbenzamido)phenyl)-1,2,4-oxadiazol-5-yl)cyclo hexane carboxylic acid]", "Percentage inhibition of hDGAT1": "+ (20-50% Inhibition)"}
{"smiles": "O=C(Nc1ccc(-c2noc([C@H]3CC[C@H](C(=O)O)CC3)n2)cc1)c1ccc(-c2ccccc2)cc1", "note": "[Example 231, (1r,4r)-4-(3-(4-Biphenyl-4-ylcarboxamidophenyl)-1,2,4-oxadiazol-5-yl)cyclo hexanecarboxylic acid]", "Percentage inhibition of hDGAT1": "+ (20-50% Inhibition)"}
{"smiles": "O=C(Nc1ccc(-c2noc([C@H]3CC[C@H](C(=O)O)CC3)n2)cc1)c1ccc(OC(F)(F)F)cc1", "note": "[Example 233, (1r,4r)-4-(3-(4-(4-(Trifluoromethoxy)benzamido)phenyl)-1,2,4-oxadiazol-5-yl)cyclohexanecarboxylic acid]", "Percentage inhibition of hDGAT1": "+ (20-50% Inhibition)"}
{"biological_target": "T1, hDGAT1", "experiment": "In-vitro DGAT1 assay with hDGAT1 microsomes from Sf9 cells (14C oleoyl CoA, scintillation counting)", "assay_type": "biochemical", "conditions": "read-out: Percentage inhibition of hDGAT1", "procedure,_shortened": "as §1", "units": {"inhibition at 1 µM": "%"}}
{"smiles": "O=C(Nc1ccc(-c2cnc(C3CCC(C(=O)O)CC3)o2)cc1)Nc1ccccc1Cl", "note": "(centres unmarked) [Example 204, 4-(5-(4-(3-(2-Chlorophenyl)ureido)phenyl)oxazol-2-yl)cyclohexanecarboxylic acid]", "inhibition at 1 µM": "20 to 50"}
{"smiles": "O=C(Nc1ccccc1)Nc1ccc(-c2cnc(C3CCC(C(=O)O)CC3)o2)cc1", "note": "(centres unmarked) [Example 206, 4-(5-(4-(3-Phenylureido)phenyl)oxazol-2-yl)cyclohexanecarboxylic acid]", "inhibition at 1 µM": "20 to 50"}
{"smiles": "O=C(Nc1ccc(-c2cnc(C3CCC(C(=O)O)CC3)o2)cc1)Nc1cccc(Cl)c1", "note": "(centres unmarked) [Example 208, 4-(5-(4-(3-(3-Chlorophenyl)ureido)phenyl)oxazol-2-yl)cyclohexanecarboxylic acid]", "inhibition at 1 µM": "> 50"}
{"smiles": "COc1ccccc1NC(=O)Nc1ccc(-c2cnc(C3CCC(C(=O)O)CC3)o2)cc1", "note": "(centres unmarked) [Example 210, 4-(5-(4-(3-(2-Methoxyphenyl)ureido)phenyl)oxazol-2-yl)cyclohexane carboxylic acid]", "inhibition at 1 µM": "20 to 50"}
{"smiles": "CC(C)(C)c1ccc(C(=O)Nc2ccc(-c3cnc(C4CCC(C(=O)O)CC4)o3)cc2)cc1", "note": "(centres unmarked) [Example 214, 4-(5-(4-(4-Tert-butylbenzamido)phenyl)oxazol-2-yl)cyclohexanecarboxylic acid]", "inhibition at 1 µM": "20 to 50"}
{"smiles": "CC(C)(CCc1ncc(-c2ccc(NC(=O)Nc3cc(F)cc(F)c3)cc2)s1)C(=O)O", "note": "[Example 235, 4-(5-(4-(3-(3,5-Difluorophenyl)ureido)phenyl)thiazol-2-yl)-2,2-dimethyl butanoic acid]", "inhibition at 1 µM": "> 50"}
